From ChEMBL document CHEMBL5625200 (Eur J Med Chem, 2023)

Biological target: T1, Endothelin-1 receptor (Homo sapiens, UniProt P25101)
T1 sequence (P25101 whole entry): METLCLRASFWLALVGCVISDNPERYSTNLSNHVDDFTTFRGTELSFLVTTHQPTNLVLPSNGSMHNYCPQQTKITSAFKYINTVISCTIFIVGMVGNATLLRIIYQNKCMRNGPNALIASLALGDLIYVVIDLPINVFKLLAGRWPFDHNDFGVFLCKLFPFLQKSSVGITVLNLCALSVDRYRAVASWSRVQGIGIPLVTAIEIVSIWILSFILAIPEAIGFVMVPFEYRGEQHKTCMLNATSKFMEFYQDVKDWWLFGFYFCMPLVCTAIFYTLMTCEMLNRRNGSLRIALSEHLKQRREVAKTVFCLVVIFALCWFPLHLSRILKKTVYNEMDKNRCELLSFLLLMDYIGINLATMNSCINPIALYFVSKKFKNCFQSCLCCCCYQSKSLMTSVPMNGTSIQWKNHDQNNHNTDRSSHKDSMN
Assay: Antagonist activity against human ET-1 by ELISA analysis
Assay type: functional

SMILES	IC50
COc1ccccc1Oc1c(NS(=O)(=O)c2ccccc2)nc(-c2ncccn2)nc1OCC1CCCN(C)C1 (stereo not given)	3.38 nM
COc1ccccc1Oc1c(NS(=O)(=O)c2ccc(C)cc2)nc(-c2ncccn2)nc1OCC1CCCC1	1.62 nM
COc1ccccc1Oc1c(NS(=O)(=O)c2ccc(C)cc2)nc(-c2ncccn2)nc1OCCC(C)C	1.39 nM
COc1ccccc1Oc1c(NS(=O)(=O)c2ccc(C(C)(C)C)cc2)nc(-c2ncccn2)nc1OCCC(C)C	4.78 nM
COc1ccccc1Oc1c(NS(C)(=O)=O)nc(-c2ncccn2)nc1OCC(F)F	0.47 nM
COc1ccccc1Oc1c(NS(C)(=O)=O)nc(-c2ncccn2)nc1OCC1CCCC1	2.19 nM
COc1ccccc1Oc1c(NS(=O)(=O)c2ccccc2)nc(-c2ncccn2)nc1OCC1CCCC1	2.78 nM
COc1ccccc1Oc1c(NS(=O)(=O)c2ccc(C(C)(C)C)cc2)nc(-c2ncccn2)nc1OCC(F)F	0.77 nM
COc1ccccc1Oc1c(NS(=O)(=O)c2ccc(C)cc2)nc(-c2ncccn2)nc1OCC(F)F	4.76 nM
COc1ccccc1Oc1c(NS(=O)(=O)c2ccccc2)nc(-c2ncccn2)nc1OCC1CC1	2.44 nM
COc1ccccc1Oc1c(NS(C)(=O)=O)nc(-c2ncccn2)nc1OCC1CCCCN1C (stereo not given)	2.21 nM
COc1ccccc1Oc1c(NS(C)(=O)=O)nc(-c2ncccn2)nc1OCC1CCCN(C)C1 (stereo not given)	2.01 nM
C=CCCOc1nc(-c2ncccn2)nc(NS(=O)(=O)c2ccc(C(C)(C)C)cc2)c1Oc1ccccc1OC	1.24 nM
COc1ccccc1Oc1c(NS(C)(=O)=O)nc(-c2ncccn2)nc1OCC1CC1	2.38 nM
COc1ccccc1Oc1c(NS(=O)(=O)c2ccccc2)nc(-c2ncccn2)nc1OCC1CCCCN1C (stereo not given)	1.91 nM
COc1ccccc1Oc1c(NS(C)(=O)=O)nc(-c2ncccn2)nc1OCC1CCC1	1.69 nM
COc1ccccc1Oc1c(NS(=O)(=O)c2ccc(C(C)(C)C)cc2)nc(-c2ncccn2)nc1OCC1CC1	1.22 nM
CC/C=C/CCOc1nc(-c2ncccn2)nc(NS(=O)(=O)c2ccc(C(C)(C)C)cc2)c1Oc1ccccc1OC	3.99 nM
COc1ccccc1Oc1c(NS(=O)(=O)c2ccccc2)nc(-c2ncccn2)nc1OCCC(C)C	1.73 nM
CC/C=C/CCOc1nc(-c2ncccn2)nc(NS(=O)(=O)c2ccc(C)cc2)c1Oc1ccccc1OC	3.92 nM

SMILES	IC50
COc1ccccc1Oc1c(NS(=O)(=O)c2ccc(C(C)(C)C)cc2)nc(-c2ncccn2)nc1OCC1CCC1	1.05 nM
COc1ccccc1Oc1c(NS(=O)(=O)c2ccc(C)cc2)nc(-c2ncccn2)nc1OCC1CCCN1C (stereo not given)	3.53 nM
COc1ccccc1Oc1c(NS(=O)(=O)c2ccccc2)nc(-c2ncccn2)nc1OCC1CCC1	1.84 nM
C=CCCOc1nc(-c2ncccn2)nc(NS(=O)(=O)c2ccc(C)cc2)c1Oc1ccccc1OC	3.78 nM
COc1ccccc1Oc1c(NS(=O)(=O)c2ccc(C)cc2)nc(-c2ncccn2)nc1OCC1CCCCN1C (stereo not given)	1.14 nM
COc1ccccc1Oc1c(NS(=O)(=O)c2ccc(C(C)(C)C)cc2)nc(-c2ncccn2)nc1OCC1CCCN(C)C1 (stereo not given)	1.43 nM
COc1ccccc1Oc1c(NS(=O)(=O)c2ccc(C)cc2)nc(-c2ncccn2)nc1OCC1CC1	1.21 nM
COc1ccccc1Oc1c(NS(=O)(=O)c2ccc(C(C)(C)C)cc2)nc(-c2ncccn2)nc1OCC1CCCCN1C (stereo not given)	2.59 nM
COc1ccccc1Oc1c(NS(=O)(=O)c2ccc(C(C)(C)C)cc2)nc(-c2ncccn2)nc1OCC1CCCC1	1.15 nM
CC#CCOc1nc(-c2ncccn2)nc(NS(C)(=O)=O)c1Oc1ccccc1OC	2.13 nM
CC/C=C/CCOc1nc(-c2ncccn2)nc(NS(=O)(=O)c2ccccc2)c1Oc1ccccc1OC	0.97 nM
COc1ccccc1Oc1c(NS(=O)(=O)c2ccc(C(C)(C)C)cc2)nc(-c2ncccn2)nc1OCC1CCCN1C (stereo not given)	1.46 nM
C=CCCOc1nc(-c2ncccn2)nc(NS(C)(=O)=O)c1Oc1ccccc1OC	2.41 nM
COc1ccccc1Oc1c(NS(C)(=O)=O)nc(-c2ncccn2)nc1OCC1CCCN1C (stereo not given)	2.33 nM
CC#CCOc1nc(-c2ncccn2)nc(NS(=O)(=O)c2ccccc2)c1Oc1ccccc1OC	4.33 nM
COc1ccccc1Oc1c(NS(=O)(=O)c2ccc(C)cc2)nc(-c2ncccn2)nc1OCC1CCCN(C)C1 (stereo not given)	2.46 nM
COc1ccccc1Oc1c(NS(=O)(=O)c2ccc(C)cc2)nc(-c2ncccn2)nc1OCC1CCC1	3.22 nM
CC#CCOc1nc(-c2ncccn2)nc(NS(=O)(=O)c2ccc(C)cc2)c1Oc1ccccc1OC	2.99 nM
COc1ccccc1Oc1c(NS(=O)(=O)c2ccccc2)nc(-c2ncccn2)nc1OCC(F)F	0.88 nM
C=CCCOc1nc(-c2ncccn2)nc(NS(=O)(=O)c2ccccc2)c1Oc1ccccc1OC	3.78 nM
